{"source": "patent US20250066328A1", "about": "“PARP7 INHIBITORS” (Gilead Sciences, Inc., priority 2023, published 2025)", "data": [{"system": "STAT1 (phosphorylated at Tyr701) in NCI-H1373 cells", "assay": "Phospho-STAT1 (Tyr701) LANCE Ultra TR-FRET detection assay in NCI-H1373 cells", "type": "cell-based", "details": "Homo sapiens, NCI-H1373, 48 h, 48 hours incubation, induction of pSTAT1, normalized to 10 uM positive control and DMSO, 4-parameter fit, read-out: NH1373 pSTAT1 EC50", "procedure": "Phospho-STAT1 (Tyr701 LANCE Ultra TR-FRET Detection Assay\nLANCE Ultra phospho-STAT1 (Tyr701) kits are designed for the detection of phosphorylated STAT1 in cell lysates using a simple, homogeneous LANCE Ultra sandwich assay (Cat. #TRF4028M). This assay is intended for assessing compound induction of endogenous levels of cellular STAT1 (phosphorylated at Tyr701) in NCI-H1373 cells. The NCI-H1373 cells are cultured in RPMI 1640 media containing 10% heat inactivated FBS, GlutaMAX, 1% Penicillin-Streptomycin. An Echo acoustic liquid handler is used to transfer 60 nanoliters of compound dilutions using the Echo Qualified, 384-well polypropylene microplate clear flat bottom source plates into a Greiner (#781080) cell culture microplate. NCI-H1373 cells are seeded into these compound-spotted culture plates at 30,000 cells/well in a 60 uL volume in growth media. The plates are incubated in a 5% CO2 humidified incubator at 37° C. for 48 hours. […] Briefly, […] of supplemented lysis buffer is added to each well and allowed to shake for 1 hour at 400 rpm. Next, 5 ul of remixed antibody solutions (vol/vol) prepared in detection buffer are added to each well and allowed to incubate at room temperature overnight. After spinning the plate down at 300 rpm for 1 min, the plate is read on an EnVision plate reader set up for Eu^3+ Cryptate and fluorescence emission is measured at two different wavelengths (665 nm and 620 nm). The HTRF ratio is then calculated ([…]) for each well to determine the amount of pSTAT1 in the cell lysate, and the data is then normalized to 10 uM (S)-5-((1-(3-oxo-3-(4-(5-(trifluoromethyl)pyrimidin-2-yl)piperazin-1-yl)propoxy)propan-2-yl)amino)-4-(trifluoromethyl)pyridazin-3(2H)-one positive and DMSO negative controls. The values were then plotted as a function of compound concentration and a 4-parameter fit was applied to derive the EC50 values.", "units": {"EC50": "nM"}, "values": [{"smiles": "C[C@@H](C[C@H](F)Cn1ccc2cc(-c3ncc(C(F)(F)F)cn3)c(F)cc2c1=O)Nc1cn[nH]c(=O)c1C(F)(F)F", "note": "(single isomer, unassigned) [Example 3]", "EC50": 11.7}, {"smiles": "C[C@@H](C[C@@H](F)Cn1ccc2cc(-c3ncc(C(F)F)cn3)c(F)cc2c1=O)Nc1cn[nH]c(=O)c1C(F)(F)F", "note": "(single isomer, unassigned) [Example 4]", "EC50": 1.08}, {"smiles": "C[C@@H](C[C@H](F)Cn1ccc2cc(-c3ncc(C(F)F)cn3)c(F)cc2c1=O)Nc1cn[nH]c(=O)c1C(F)(F)F", "note": "(single isomer, unassigned) [Example 5]", "EC50": 47.6}, {"smiles": "COc1cnc(-c2cc3ccn(C[C@H](F)C[C@H](C)Nc4cn[nH]c(=O)c4C(F)(F)F)c(=O)c3cc2F)nc1", "note": "(single isomer, unassigned) [Example 6]", "EC50": 0.809}, {"smiles": "COc1cnc(-c2cc3ccn(C[C@@H](F)C[C@H](C)Nc4cn[nH]c(=O)c4C(F)(F)F)c(=O)c3cc2F)nc1", "note": "(single isomer, unassigned) [Example 7]", "EC50": 152}, {"smiles": "C[C@@H](C[C@@H](F)Cn1ccc2cc(-c3ncc(C(C)(C)O)cn3)c(F)cc2c1=O)Nc1cn[nH]c(=O)c1C(F)(F)F", "note": "(single isomer, unassigned) [Example 8]", "EC50": 3.55}, {"smiles": "C[C@@H](C[C@H](F)Cn1ccc2cc(-c3ncc(C(C)(C)O)cn3)c(F)cc2c1=O)Nc1cn[nH]c(=O)c1C(F)(F)F", "note": "(single isomer, unassigned) [Example 9]", "EC50": 238}, {"smiles": "C[C@@H](C[C@@H](F)Cn1ccc2cc(-c3ncc(C(F)F)c(N)n3)c(F)cc2c1=O)Oc1cn[nH]c(=O)c1C(F)(F)F", "note": "(single isomer, unassigned) [Example 14]", "EC50": 8.34}, {"smiles": "C[C@@H](C[C@H](F)Cn1ccc2cc(-c3ncc(C(F)F)c(N)n3)c(F)cc2c1=O)Oc1cn[nH]c(=O)c1C(F)(F)F", "note": "(single isomer, unassigned) [Example 15]", "EC50": 0.786}, {"smiles": "C[C@@H](C[C@@H](O)Cn1ccc2cc(-c3ncc(C(F)(F)F)cn3)c(F)cc2c1=O)Oc1cn[nH]c(=O)c1C(F)(F)F", "note": "(single isomer, unassigned) [Example 17]", "EC50": 23.3}, {"smiles": "C[C@@H](C[C@@H](O)Cn1ccc2cc(-c3ncc(C(F)F)cn3)c(F)cc2c1=O)Oc1cn[nH]c(=O)c1C(F)(F)F", "note": "(single isomer, unassigned) [Example 19]", "EC50": 1.28}, {"smiles": "C[C@@H](C[C@H](O)Cn1ccc2cc(-c3ncc(C(F)F)cn3)c(F)cc2c1=O)Oc1cn[nH]c(=O)c1C(F)(F)F", "note": "(single isomer, unassigned) [Example 20]", "EC50": 33}, {"smiles": "C[C@@H](C[C@@H](O)Cn1ccc2cc(-c3nc4ccccn4n3)c(F)cc2c1=O)Nc1cn[nH]c(=O)c1C(F)(F)F", "note": "(single isomer, unassigned) [Example 22]", "EC50": 2.7}, {"smiles": "C[C@@H](C[C@H](O)Cn1ccc2cc(-c3nc4ccccn4n3)c(F)cc2c1=O)Nc1cn[nH]c(=O)c1C(F)(F)F", "note": "(single isomer, unassigned) [Example 23]", "EC50": 7.18}, {"smiles": "CC(C)(O)c1cnc(-c2cc3ccn(CCC[C@@H](COC(F)F)Oc4cn[nH]c(=O)c4C(F)(F)F)c(=O)c3cc2F)nc1", "note": "(single isomer, unassigned) [Example 34]", "EC50": 10000}, {"smiles": "CC(C)(O)c1cnc(-c2cc3ccn(CCC[C@H](COC(F)F)Oc4cn[nH]c(=O)c4C(F)(F)F)c(=O)c3cc2F)nc1", "note": "(single isomer, unassigned) [Example 35]", "EC50": 20.5}, {"smiles": "C[C@@H](C[C@@H](F)Cn1ccc2cc(-c3ncc(Cl)cn3)c(F)c(F)c2c1=O)Oc1cn[nH]c(=O)c1C(F)(F)F", "note": "(single isomer, unassigned) [Example 43]", "EC50": 0.62}, {"smiles": "C[C@@H](C[C@@H](F)Cn1ccc2cc(-c3ncc(C(C)(C)O)cn3)c(F)cc2c1=O)Oc1cn[nH]c(=O)c1C(F)(F)F", "note": "(single isomer, unassigned) [Example 51]", "EC50": 3.28}, {"smiles": "C[C@@H](C[C@@H](F)Cn1cc(F)c2cc(-c3ncc(C(C)(C)O)cn3)c(F)cc2c1=O)Oc1cn[nH]c(=O)c1C(F)(F)F", "note": "(single isomer, unassigned) [Example 56]", "EC50": 1.51}, {"smiles": "COc1cnc(-c2cc3ncn(C[C@H](F)C[C@H](C)Oc4cn[nH]c(=O)c4C(F)(F)F)c(=O)c3cc2F)nc1", "note": "(single isomer, unassigned) [Example 57]", "EC50": 38.8}, {"smiles": "C[C@@H](C[C@H](F)Cn1ccc2cc(-c3ncc(C(C)(C)O)cn3)c(F)cc2c1=O)Oc1cn[nH]c(=O)c1C(F)(F)F", "note": "(single isomer, unassigned) [Example 61]", "EC50": 158}, {"smiles": "O=c1[nH]ncc(O[C@H](CCCn2ccc3cc(-c4ncc(C(F)(F)F)cn4)c(F)cc3c2=O)COC(F)F)c1C(F)(F)F", "note": "(single isomer, unassigned) [Example 119]", "EC50": 16.1}, {"smiles": "C[C@@H](CC(F)Cn1ccc2cc(-c3ncc(C(F)(F)F)cn3)c(F)cc2c1=O)Nc1cn[nH]c(=O)c1C(F)(F)F", "note": "(stereo partly drawn) [Example 1, 7-fluoro-2-[(4S)-2-fluoro-4-[[6-oxo-5-(trifluoromethyl)-1H-pyridazin-4-yl]amino]pentyl]-6-[5-(trifluoromethyl)pyrimidin-2-yl]isoquinolin-1-one]", "EC50": 1.88}, {"smiles": "C[C@@H](C[C@@H](F)Cn1ccc2cc(-c3ncc(C(F)(F)F)cn3)c(F)cc2c1=O)Nc1cn[nH]c(=O)c1C(F)(F)F", "note": "[Example 2]", "EC50": 0.947}, {"smiles": "COC(C[C@H](C)Nc1cn[nH]c(=O)c1C(F)(F)F)Cn1ccc2cc(-c3ncc(C(F)(F)F)cn3)c(F)cc2c1=O", "note": "(stereo partly drawn) [Example 10, 7-fluoro-2-((4S)-2-methoxy-4-((6-oxo-5-(trifluoromethyl)-1,6-dihydropyridazin-4-yl)amino)pentyl)-6-(5-(trifluoromethyl)pyrimidin-2-yl)isoquinolin-1(2H)-one]", "EC50": 30.8}, {"smiles": "C[C@@H](CC(F)Cn1ccc2cc(-c3ncc(C(F)(F)F)cn3)c(F)cc2c1=O)Oc1cn[nH]c(=O)c1C(F)(F)F", "note": "(stereo partly drawn) [Example 11, 7-fluoro-2-((4S)-2-fluoro-4-((6-oxo-5-(trifluoromethyl)-1,6-dihydropyridazin-4-yl)oxy)pentyl)-6-(5-(trifluoromethyl)pyrimidin-2-yl)isoquinolin-1(2H)-one]", "EC50": 3.61}, {"smiles": "C[C@@H](C[C@@H](F)Cn1ccc2cc(-c3ncc(C(F)(F)F)cn3)c(F)cc2c1=O)Oc1cn[nH]c(=O)c1C(F)(F)F", "note": "[Example 12]", "EC50": 45.1}, {"smiles": "C[C@@H](C[C@H](F)Cn1ccc2cc(-c3ncc(C(F)(F)F)cn3)c(F)cc2c1=O)Oc1cn[nH]c(=O)c1C(F)(F)F", "note": "[Example 13]", "EC50": 1.32}, {"smiles": "C[C@@H](CC(O)Cn1ccc2cc(-c3ncc(C(F)(F)F)cn3)c(F)cc2c1=O)Oc1cn[nH]c(=O)c1C(F)(F)F", "note": "(stereo partly drawn) [Example 16]", "EC50": 1.12}, {"smiles": "C[C@@H](C[C@H](O)Cn1ccc2cc(-c3ncc(C(F)(F)F)cn3)c(F)cc2c1=O)Oc1cn[nH]c(=O)c1C(F)(F)F", "note": "[Example 18]", "EC50": 1.81}, {"smiles": "C[C@@H](CC(O)Cn1ccc2cc(-c3nc4ccccn4n3)c(F)cc2c1=O)Nc1cn[nH]c(=O)c1C(F)(F)F", "note": "(stereo partly drawn) [Example 21, 6-([1,2,4]triazolo[1,5-a]pyridin-2-yl)-7-fluoro-2-((4S)-2-hydroxy-4-((6-oxo-5-(trifluoromethyl)-1,6-dihydropyridazin-4-yl)amino)pentyl)isoquinolin-1(2H)-one]", "EC50": 13.3}, {"smiles": "C[C@@H](C[C@@H](F)Cn1cc(F)c2cc(-c3ncc(C(F)F)c(N)n3)c(F)cc2c1=O)Nc1cn[nH]c(=O)c1C(F)(F)F", "note": "[Example 24, 6-(4-amino-5-(difluoromethyl)pyrimidin-2-yl)-4,7-difluoro-2-((2R,4S)-2-fluoro-4-((6-oxo-5-(trifluoromethyl)-1,6-dihydropyridazin-4-yl)amino)pentyl)isoquinolin-1(2H)-one]", "EC50": 2.39}, {"smiles": "COc1cnc(-c2cc3c(F)cn(C[C@H](F)C[C@H](C)Nc4cn[nH]c(=O)c4C(F)(F)F)c(=O)c3cc2F)nc1", "note": "[Example 25]", "EC50": 1.01}, {"smiles": "C[C@@H](C[C@@H](F)Cn1cc(F)c2cc(-c3ncc(C(C)(C)O)cn3)c(F)cc2c1=O)Nc1cn[nH]c(=O)c1C(F)(F)F", "note": "[Example 26]", "EC50": 3.84}, {"smiles": "[2H]C([2H])([2H])Oc1cnc(-c2cc3ccn(C[C@H](F)C[C@H](C)Nc4cn[nH]c(=O)c4C(F)(F)F)c(=O)c3cc2F)nc1", "note": "[Example 27]", "EC50": 1.05}, {"smiles": "C[C@@H](C[C@@H](F)Cn1ccc2cc(-c3ncc(C(C)(C)O)cn3)c(F)c(F)c2c1=O)Nc1cn[nH]c(=O)c1C(F)(F)F", "note": "[Example 28]", "EC50": 6.51}, {"smiles": "C[C@@H](C[C@@H](F)Cn1cc(F)c2cc(-c3ncc(C(F)F)cn3)c(F)cc2c1=O)Nc1cn[nH]c(=O)c1C(F)(F)F", "note": "[Example 29]", "EC50": 1.86}, {"smiles": "C[C@@H](C[C@@H](F)Cn1cc(F)c2cc(-c3ncc(C(F)(F)F)cn3)c(F)cc2c1=O)Nc1cn[nH]c(=O)c1C(F)(F)F", "note": "[Example 30]", "EC50": 1.54}, {"smiles": "C[C@@H](C[C@@H](F)Cn1ccc2cc(-c3ncc(C(F)(F)F)cn3)c(F)c(F)c2c1=O)Nc1cn[nH]c(=O)c1C(F)(F)F", "note": "[Example 32]", "EC50": 0.912}]}]}
